As usually defined, the fraction remaining is what is left of the initial amount, in per cent. Lower therefore signals more turnover. As usually defined, the EC50 is the concentration giving half of the maximal effect.

Where a SMILES comes first, the peptide text is derived from it. Bridges are numbered along the chain shown (N, C = ends). [ ]: non-standard residue; d: D form. The star is where a group is joined. Succinimide(1-Et,3-yl) = CCN1C(=O)CC(*)C1=O; Bta = N[C@@H](Cc1csc2ccccc12)C(=O)O; Tle = CC(C)(C)[C@H](N)C(=O)O; hCys = N[C@@H](CCS)C(=O)O; Hexanoyl = CCCCCC(=O)*; Aib = CC(C)(N)C(=O)O; Sar = CNCC(=O)O

This is an account of results in patent publication US10800816B2 (Baxalta GmbH, priority 2012, dated 2020).

The nature of data set [1]: in vitro. As to conditions: human, plasma.
Data set [2] in a line: FIGURE 78X.
Data set [3] is described as follows: FIGURE 78AA. The text has this:
Table printed on a drawing sheet, FIGURE 78AA
First reader's note: Continued from the previous sheet: the first body row (73.35) belongs to a compound listed there; cells with several numbers hold the single replicate values behind the mean.

Data set [4] deals with TFPI. As to the kind of experiment: % Inhibition @ 2.5µM.
Data set [5] has as its system TFPI. The experiment in a line: % Inhibition @ 0.63µM.
In data set [6] the test system is TFPI. As to the kind of experiment: % Inhibition @ 0.63µM. This is another data set of the same source.
The test system of data set [7] is TFPI. The experiment in a line: FXa Inhibition assay | EC50 (µM).
Data set [8] relates to TFPI. As to the kind of experiment: % Inhibition @ 2.5µM. This is another data set of the same source.
Data set [9] can be described thus: FIGURE 78K. The text has this:
Table printed on a drawing sheet, FIGURE 78K

In data set [10] the test system is TFPI. The experiment in a line: Progress Curves of Inhibition of FXa | % Inhibit (2.5μM). On the procedure:
Head of the field: Progress Curves of Inhibition of FXa | % Inhibit (2.5μM)

The test system of data set [11] is TFPI. As to the kind of experiment: Extrinsic Tenase Inhibition assay | % Inhibition @ 2.5μM.

The compound `CC(=O)N[C@@H](Cc1ccccc1)C(=O)N[C@@H](CCC(N)=O)C(=O)N[C@@H](CO)C(=O)N[C@@H](CCCCN)C(=O)N1CCC[C@@H]1C(=O)N[C@@H](CC(N)=O)C(=O)N[C@H](C(=O)N[C@@H](Cc1c[nH]cn1)C(=O)N[C@H](C(=O)N[C@@H](CC(=O)O)C(=O)N[C@H](C)C(=O)N[C@@H](Cc1ccc(O)cc1)C(=O)N[C@@H](Cc1ccccc1)C(=O)N[C@@H](CCC(=O)O)C(=O)N[C@@H](CCCNC(=N)N)C(=O)N[C@@H](CC(C)C)C(=O)NC(C)(C)C(=O)N[C@@H](C)C(=O)N[C@@H](CCCCN)C(=O)N[C@@H](CC(C)C)C(N)=O)C(C)C)C(C)C` [JBT2414] (Ac-FQSK[dP]NVHVD[dA]YFERL[Aib]AKL-NH2) yielded a share remaining at 24 h in data set [1] of 100%.

On to `CC(=O)N[C@@H](Cc1ccccc1)C(=O)N[C@@H](CCC(N)=O)C(=O)N[C@@H](CO)C(=O)N[C@@H](CCCCN)C(=O)N1CCC[C@@H]1C(=O)N[C@@H](CC(N)=O)C(=O)N[C@H](C(=O)N[C@@H](Cc1c[nH]cn1)C(=O)N[C@H](C(=O)N1CCC[C@H]1C(=O)N[C@@H]1CSSCC[C@@H](C(=O)N[C@@H](CCCNC(=N)N)C(=O)N[C@@H](CC(C)C)C(=O)NC(C)(C)C(=O)N[C@@H](C)C(=O)N[C@@H](CCCCN)C(=O)N[C@@H](CC(C)C)C(N)=O)NC(=O)[C@H](Cc2csc3ccccc23)NC(=O)[C@H](Cc2ccc(O)cc2)NC1=O)C(C)C)C(C)C` [JBT00002518, Ac-FQSKpNVHVP[cY-Bta--Hcy-]RL-Aib-AKL-NH2] (Ac-FQSK[dP]NVHVP[dC]Y[Bta][hCys]RL[Aib]AKL-NH2; disulfide 11-14), for which, in [2], the “24 h Human Plasma Stability | Mean Remaining [%]” value is 77.70% and the “24 h Mouse Plasma Stability | Mean Remaining [%]” value is recorded as 28.30%.

Regarding `CCCCCC(=O)N[C@@H](Cc1ccccc1)C(=O)N[C@@H](CCC(N)=O)C(=O)N[C@@H](CO)C(=O)N[C@@H](CCCCN)C(=O)N1CCC[C@@H]1C(=O)N[C@@H](CO)C(=O)N[C@H](C(=O)N[C@@H](Cc1c[nH]cn1)C(=O)N[C@H](C(=O)N[C@@H](CC(=O)O)C(=O)N[C@H](C)C(=O)N[C@@H](Cc1ccc(O)cc1)C(=O)N[C@@H](Cc1ccccc1)C(=O)N[C@@H](CCC(=O)O)C(=O)N[C@@H](CCCNC(=N)N)C(=O)N[C@@H](CC(C)C)C(=O)NC(C)(C)C(=O)N[C@@H](C)C(=O)N[C@@H](CCCCN)C(=O)N[C@@H](CC(C)C)C(=O)N[C@@H](CSC1CC(=O)N(CC)C1=O)C(N)=O)C(C)(C)C)C(C)C` (stereo partly drawn) [JBT00002546, Hex-FQSKpSVH-Tle-DaYFERL-Aib-AKLC(NEM)-NH2] (Hexanoyl-FQSK[dP]SVH[Tle]D[dA]YFERL[Aib]AKLC(Succinimide(1-Et,3-yl))-NH2), in [3], the “24 h Human Plasma Stability | Mean Remaining [%]” value is 87.66% and the “24 h Mouse Plasma Stability | Mean Remaining [%]” value stood at 72.98%.

Turning to `CCCCCC(=O)N[C@@H](Cc1ccccc1)C(=O)N[C@@H](CCC(N)=O)C(=O)N[C@@H](CO)C(=O)N[C@@H](CCCCN)C(=O)N1CCC[C@@H]1C(=O)N[C@@H](CO)C(=O)N[C@H](C(=O)N[C@@H](Cc1c[nH]cn1)C(=O)N[C@H](C(=O)N[C@@H](CC(=O)O)C(=O)N[C@H](C)C(=O)N[C@@H](Cc1ccc(O)cc1)C(=O)N[C@@H](Cc1ccccc1)C(=O)N[C@@H](CCC(=O)O)C(=O)N[C@@H](CCCNC(=N)N)C(=O)N[C@@H](CC(C)C)C(=O)NC(C)(C)C(=O)N[C@@H](C)C(=O)N[C@@H](CCCCN)C(=O)N[C@@H](CC(C)C)C(N)=O)C(C)(C)C)C(C)C` [JBT00002548, Hex-FQSKpSVH-Tle-DaYFERL-Aib-AKL-NH2], in data set [3], the “24 h Human Plasma Stability | Mean Remaining [%]” value is listed as 98.85% and the “24 h Mouse Plasma Stability | Mean Remaining [%]” value came to 50.25%.

Take “(Ac-FQSKpNVHVDGYFERL-Aib-AKLC-NH2)2-M2TriO [JBT00002522]”: in data set [2], the “24 h Human Plasma Stability | Mean Remaining [%]” value came out at 46.90% and the “24 h Mouse Plasma Stability | Mean Remaining [%]” value amounted to 18.05%.

For the compound “(Hex-FQSKp-Cys(Acm)-VH-Tle-DaYFERL-Aib-AKLC-NH2)- Mal-mPEG23 [JBT00002544]”, in data set [3], the “24 h Human Plasma Stability | Mean Remaining [%]” value came out at 54.00% and the “24 h Mouse Plasma Stability | Mean Remaining [%]” value was 46.20%.

Consider “Ac-FQSK-Nmg-AVFVFGYFARLRAKL-NH2 (SEQ ID NO: 206) (Ac-FQSK[Sar]AVFVFGYFARLRAKL-NH2; SMILES CC(=O)N[C@@H](Cc1ccccc1)C(=O)N[C@@H](CCC(N)=O)C(=O)N[C@@H](CO)C(=O)N[C@@H](CCCCN)C(=O)N(C)CC(=O)N[C@@H](C)C(=O)N[C@H](C(=O)N[C@@H](Cc1ccccc1)C(=O)N[C@H](C(=O)N[C@@H](Cc1ccccc1)C(=O)NCC(=O)N[C@@H](Cc1ccc(O)cc1)C(=O)N[C@@H](Cc1ccccc1)C(=O)N[C@@H](C)C(=O)N[C@@H](CCCNC(=N)N)C(=O)N[C@@H](CC(C)C)C(=O)N[C@@H](CCCNC(=N)N)C(=O)N[C@@H](C)C(=O)N[C@@H](CCCCN)C(=O)N[C@@H](CC(C)C)C(N)=O)C(C)C)C(C)C) [JBT0681]”, for which the “% Inhibition @ […]” value in data set [4] and in data set [5] was 52% each time.

Consider “Ac-FQSKDNVFVTGYFERLRAKL-NH2 (SEQ ID NO: 33) [JBT0478]”, for which the results for the “% Inhibition @ […]” value in [6] and in data set [8] were 21% and 39%, respectively. In addition, the half-maximal effective concentration (EC50) in data set [7] came to 0.76 µM.

For the compound “Ac-FQSKGNVFLFGYFERLRAKL-NH2 (SEQ ID NO: 694) [JBT0658]”, the “% Inhibition @ […]” value in [4] stood at 6%.

Turning to “Ac-FQSKGNVFVDGYFDRLRAKL-NH2 (SEQ ID NO: 31) [JBT0476]”, the “% Inhibition @ […]” value in data set [6] was found to be 38%; in data set [8], 49%. The concentration for a half-maximal effect (EC50) in data set [7] came to 0.22 µM.

On to “Ac-FQSKGNVFVEGYFERLRAKL-NH2 (SEQ ID NO: 30) [JBT0475]”, for which the “% Inhibition @ […]” value is on record as 37% in data set [6] and 50% in data set [8]. In data set [7], this compound showed a 50% effective concentration (EC50) of 0.25 µM.

For the compound “Ac-FQSKGNVFVHGYFERLRAKL-NH2 (SEQ ID NO: 28) [JBT0473]”, the “% Inhibition @ […]” value in [6] is listed as 31%; in [8] it was 45%. The compound also registered an EC50 in [7] of 0.25 µM.

With “Ac-FQSKGNVFVNGYFERLRAKL-NH2 (SEQ ID NO: 27) [JBT0472]”, the “% Inhibition @ […]” value in data set [6] worked out at 34%; in [8], 49%. In data set [7], this compound had an EC50 of 0.37 µM.

“Ac-FQSKpNVHVDGYFERL-Aib-AKLC(ME-200MA0B)-NH2 [JBT00002327]”: in data set [9], the “24 h Human Plasma Stability | Mean Remaining [%]” value turned out to be 76.50% and the “24 h Mouse Plasma Stability | Mean Remaining [%]” value was 65.50%.

Consider “Ac-FQSKpNVHVDGYFERL-Aib-AKLC(ME-300MA)-NH2 [JBT00002328]”, for which, in [9], the “24 h Human Plasma Stability | Mean Remaining [%]” value came out at 68.40% and the “24 h Mouse Plasma Stability | Mean Remaining [%]” value is 51.00%.

Take “Ac-KKHVSKRSKEMALARLYYKTSKK-NH2 (SEQ ID NO: 2302) [JBT0231]”: the “Progress Curves of Inhibition of FXa | % Inhibit ([…])” value in [10] is on record as 0%.

As for “Ac-KKLHVSKRSKEMALARLYYKTSKK-NH2 (SEQ ID NO: 2307) [JBT0236]”, in data set [10], the “Progress Curves of Inhibition of FXa | % Inhibit ([…])” value is reported as 0%.

Consider “Ac-KKQLHVSKRSKEMALARLYYKTKK-NH2 (SEQ ID NO: 2306) [JBT0235]”, for which the “Progress Curves of Inhibition of FXa | % Inhibit ([…])” value in data set [10] worked out at 0%.

With “Ac-KKVQLHVSKRSKEMALARLYYKTSKK- NH2 (SEQ ID NO: 2301) (Ac-KKVQLHVSKRSKEMALARLYYKTSKK-NH2) [JBT0230]”, the “Progress Curves of Inhibition of FXa | % Inhibit ([…])” value in data set [10] is listed as 0%.

As for “Ac-KKYASFPLAVQLHVSKRSKEMAKK-NH2 [JBT0233]”, the “Progress Curves of Inhibition of FXa | % Inhibit ([…])” value in [10] is recorded as 6%.

Regarding “Ac-KRYKWF[CGMRDMKGTMSC]VWVKF-NH2 (SEQ ID NO: 1016) (Ac-KRYKWFCGMRDMKGTMSCVWVKF-NH2; disulfide 7-18; SMILES CSCC[C@@H]1NC(=O)CNC(=O)[C@@H](NC(=O)[C@H](Cc2ccccc2)NC(=O)[C@H](Cc2c[nH]c3ccccc23)NC(=O)[C@H](CCCCN)NC(=O)[C@H](Cc2ccc(O)cc2)NC(=O)[C@H](CCCNC(=N)N)NC(=O)[C@H](CCCCN)NC(C)=O)CSSC[C@@H](C(=O)N[C@H](C(=O)N[C@@H](Cc2c[nH]c3ccccc23)C(=O)N[C@H](C(=O)N[C@@H](CCCCN)C(=O)N[C@@H](Cc2ccccc2)C(N)=O)C(C)C)C(C)C)NC(=O)[C@H](CO)NC(=O)[C@H](CCSC)NC(=O)[C@H]([C@@H](C)O)NC(=O)CNC(=O)[C@H](CCCCN)NC(=O)[C@H](CCSC)NC(=O)[C@H](CC(=O)O)NC(=O)[C@H](CCCNC(=N)N)NC1=O) [JBT1474]”, in data set [11], the “Extrinsic Tenase Inhibition assay | % Inhibition @ […]” value was found to be 59%.

“Ac-SFYKWF[CGMRDMKGTMSC]VWVKF-NH2 (SEQ ID NO:1010) [JBT1437]”: in data set [11], the “Extrinsic Tenase Inhibition assay | % Inhibition @ […]” value is 53%.

For “Ac-SRYKWF[CGMKDMKGTMSC]VWVKF-NH2 (SEQ ID NO: 1017) (Ac-SRYKWFCGMKDMKGTMSCVWVKF-NH2; disulfide 7-18; SMILES CSCC[C@@H]1NC(=O)CNC(=O)[C@@H](NC(=O)[C@H](Cc2ccccc2)NC(=O)[C@H](Cc2c[nH]c3ccccc23)NC(=O)[C@H](CCCCN)NC(=O)[C@H](Cc2ccc(O)cc2)NC(=O)[C@H](CCCNC(=N)N)NC(=O)[C@H](CO)NC(C)=O)CSSC[C@@H](C(=O)N[C@H](C(=O)N[C@@H](Cc2c[nH]c3ccccc23)C(=O)N[C@H](C(=O)N[C@@H](CCCCN)C(=O)N[C@@H](Cc2ccccc2)C(N)=O)C(C)C)C(C)C)NC(=O)[C@H](CO)NC(=O)[C@H](CCSC)NC(=O)[C@H]([C@@H](C)O)NC(=O)CNC(=O)[C@H](CCCCN)NC(=O)[C@H](CCSC)NC(=O)[C@H](CC(=O)O)NC(=O)[C@H](CCCCN)NC1=O) [JBT1481]”, in [11], the “Extrinsic Tenase Inhibition assay | % Inhibition @ […]” value worked out at 55%.

For the compound “Ac-SRYKWF[CGMRDMKGTLSC]VWVKF-NH2 (SEQ ID NO:1064) [JBT1506]”, in data set [11], the “Extrinsic Tenase Inhibition assay | % Inhibition @ […]” value is on record as 45%.
